Measured values published in patent US10323028B2, “1,3,4-thiadiazole compounds and their use in treating cancer” (AstraZeneca AB, priority 2015, dated 2019).
Read-outs that look alike come from different tables or passages of the source.

Columns and labels:
NCI-H1703 cells = assay: GLS Cell Proliferation Assay (NCI-H1703 cell proliferation); type: cell-based
Text: (§1) The following assays were used to measure the effects of the compounds described herein: a) GLS Enzyme Potency Assay; b) GLS Cell Potency Assay; c) GLS Cell Proliferation Assay. During the description of the assays, generally: • i. The following abbreviations have been used: CO2=Carbon dioxide; DMEM=Dulbecco's Modified Eagle Medium; DMSO=Dimethyl sulphoxide; EDTA=Ethylenediaminetetraacetic acid; EGTA=Ethylene glycol tetraacetic acid; FCS=Foetal calf serum; h=Hour(s); NBS=Non-binding surface; SDS=Sodium dodecyl sulphate; TRIS=Tris(Hydroxymethyl)aminomethane. • ii. IC50 values were calculated using a smart fitting model in Genedata.
Assay c): GLS Cell Proliferation Assay
The ability of compounds to inhibit cell growth was measured using a 384 well plate NCI-H1703 cell proliferation assay. NCI-H1703 cells were grown in phenol red free RPMI1640, 10% FCS and 2 mM glutamine and seeded at a density of 750 cells per well in 40 μl of growth medium into clear-bottom 384 well assay plates (Corning product code 3712) and incubated for 24 h at 37° C., 5% CO2. […] DMSO concentration was maintained at 0.3% by back filling with DMSO solution. Plates were incubated for 5 days at 37° C., 5% CO2, Sytox Green and Saponin added to final concentration of 2 μM and 0.25% respectively and incubated for 6 h prior to analysis. […] IC50 values were calculated by curve fitting to max inhibition of day zero growth using GeneData software analysis.

GLS1 = GLS1 (Homo sapiens (Human), UniProt O94925); assay: GLS Enzyme Potency Assay (Glutamate Oxidase/AmplexRed coupled assay); type: biochemical
Text: as §1
Assay a): GLS Enzyme Potency Assay
A Glutamate Oxidase/AmplexRed coupled assay was used to measure the ability of compounds to bind to and inhibit the activity of GLS1 in vitro. […] GLS1 was diluted to 2× working concentration and incubated at room temperature to allow the tetrameric/dimeric forms to reach steady state. Assay measurements were performed in buffer comprising 50 mM TRIS pH 7.8, 100 mM NaPO4, pH 7.8, 0.001% v/v Tween20. Purified recombinant GLS1 protein was diluted in assay buffer to 12 nM and pre-incubated at room temperature for 30 minutes. […] DMSO concentration was maintained at 2% by back filling with DMSO solution. 3 μL of diluted GLS1 protein (12 nM) was then dispensed into each well using a BioRaptr automated dispenser (Beckman-Coulter) and incubated for 15 minutes at room temperature. 3 μL of 100 mM glutamine diluted in assay buffer was then added and the reaction incubated at room temperature for 60 minutes. […] An artefact version of the assay where the 6His tagged GLS protein and glutamine were replaced with assay buffer was also used to rule out non specific effects on the assay components.

[1] = target: cellular GLS activity in PC3 cells (Homo sapiens (Human), UniProt O94925); assay: GLS Cell Potency Assay (PC3 coupled assay measuring cellular glutamate depletion); type: cell-based; conditions: PC3 cells, 6 h incubation, glutamate depletion; read-out: Assay b) GLS cell MOA Mean IC50
Text: as §1
Assay b): GLS Cell Potency Assay
Compounds were assessed for their potential to inhibit cellular GLS activity by use of a PC3 coupled assay measuring cellular glutamate depletion. […] DMSO concentration was maintained at 0.3% by back filling with DMSO solution. PC3 cells were grown in phenol free DMEM, 10% dialyzed FCS, 2 mM glutamine and following dispersal by trypsinisation were plated at 5.6×10^3 cells per well in 40 μl of growth medium directly into the 384 well assay plates containing dispensed compound. After incubation for 6 h at 37° C., 5% CO2 growth media was aspirated and cells lysed in 15 μl of buffer containing 10 mM TRIS pH7.4, 100 mM NaCl, 1 mM EDTA, 1 mM EGTA, 1 mM NaF, 20 mM Na4P2O7, 2 mM Na3VO4, 1% Triton X-100, 10% glycerol, 0.1% SDS and 0.5% deoxycholate.

[2] = NCI-H1703 cells, 5 days; read-out: Assay c) Prolif Mean IC50
[3] = 6His tagged GLS protein (amino acids 63-669), recombinant; read-out: Assay a) enz IC50
[4] = Homo sapiens, NCI-H1703, 120 h, NCI-H1703 cells, 5 days; read-out: Assay c) Prolif Mean IC50

Sequence of GLS1 (O94925 63-669): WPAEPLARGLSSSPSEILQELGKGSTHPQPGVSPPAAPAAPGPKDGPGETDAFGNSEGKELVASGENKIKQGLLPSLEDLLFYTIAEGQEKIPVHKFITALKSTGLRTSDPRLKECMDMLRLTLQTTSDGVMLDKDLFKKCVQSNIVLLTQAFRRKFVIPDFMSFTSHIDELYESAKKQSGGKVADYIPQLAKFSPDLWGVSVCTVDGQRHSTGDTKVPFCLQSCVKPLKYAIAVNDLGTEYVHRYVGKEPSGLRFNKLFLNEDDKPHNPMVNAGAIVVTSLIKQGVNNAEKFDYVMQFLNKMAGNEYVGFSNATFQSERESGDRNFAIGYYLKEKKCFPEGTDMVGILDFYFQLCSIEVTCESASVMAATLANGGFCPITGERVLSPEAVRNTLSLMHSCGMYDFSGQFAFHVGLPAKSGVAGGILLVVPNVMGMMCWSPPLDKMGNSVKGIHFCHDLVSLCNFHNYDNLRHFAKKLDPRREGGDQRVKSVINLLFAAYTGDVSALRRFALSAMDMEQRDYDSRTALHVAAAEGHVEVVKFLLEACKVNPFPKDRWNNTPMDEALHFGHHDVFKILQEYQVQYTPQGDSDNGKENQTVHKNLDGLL
Sequence of cellular GLS activity in PC3 cells (O94925 73-669): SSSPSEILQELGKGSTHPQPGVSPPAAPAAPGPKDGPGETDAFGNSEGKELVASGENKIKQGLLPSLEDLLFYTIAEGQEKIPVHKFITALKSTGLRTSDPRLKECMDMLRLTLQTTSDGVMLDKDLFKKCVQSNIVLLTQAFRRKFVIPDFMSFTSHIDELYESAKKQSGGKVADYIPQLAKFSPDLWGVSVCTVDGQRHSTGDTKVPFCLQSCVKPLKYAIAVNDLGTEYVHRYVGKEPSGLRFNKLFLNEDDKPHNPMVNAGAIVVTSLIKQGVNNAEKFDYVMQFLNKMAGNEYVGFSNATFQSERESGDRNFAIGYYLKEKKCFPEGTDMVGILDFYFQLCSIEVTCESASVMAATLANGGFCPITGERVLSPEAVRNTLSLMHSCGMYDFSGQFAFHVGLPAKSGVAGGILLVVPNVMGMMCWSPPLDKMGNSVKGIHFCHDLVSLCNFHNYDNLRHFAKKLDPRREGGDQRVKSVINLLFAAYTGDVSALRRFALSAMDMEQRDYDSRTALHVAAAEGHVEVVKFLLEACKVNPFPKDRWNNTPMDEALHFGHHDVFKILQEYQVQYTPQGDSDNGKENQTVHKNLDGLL

IC50 (NCI-H1703 cells; [2]) [nM]	IC50 (GLS1; [3]) [nM]	IC50 (GLS1; read-out: Assay a) enz IC50) [nM]	IC50 [1] [nM]	SMILES	IC50 (NCI-H1703 cells; [4]) [nM]
		146	11.3	COC[C@H](C(=O)Nc1nnc(N[C@@H]2CCN(c3ccc(C)nn3)C2)s1)c1ccccc1 (single isomer, unassigned) [45(b)]	
	20.6		0.83	CO[C@H](C(=O)Nc1nnc(N[C@@H]2CCN(c3cccnn3)C2)s1)c1cccc(N2CC(F)C2)c1 (single isomer, unassigned) [Example 1(a)]	
		72.6	18.4	CO[C@H](C(=O)Nc1nnc(N[C@@H]2CCN(c3cccnn3)C2)s1)c1cccc(N2CC(F)C2)c1 (single isomer, unassigned) [Example 1(b)]	
29.1	52.6		3.48	COC(C(=O)Nc1nnc(N[C@@H]2CCN(c3nccnn3)C2)s1)c1cccc(C2COC2)c1 (single isomer, unassigned) [Example 24]	
831	1840		86.1	COC(C(=O)Nc1nnc(N[C@@H]2CCN(c3nccnn3)C2)s1)c1cccc(C2COC2)c1 (single isomer, unassigned) [Example 25]	
1.96	51.1		0.404	CCOC(C(=O)Nc1nnc(N[C@@H]2CCN(c3cccnn3)C2)s1)c1cccc(N2CC(F)(F)C2)c1 (single isomer, unassigned) [Example 29]	
37.7	1370		3.22	CCOC(C(=O)Nc1nnc(N[C@@H]2CCN(c3cccnn3)C2)s1)c1cccc(N2CC(F)(F)C2)c1 (single isomer, unassigned) [Example 30]	
3.21	96.8		0.573	CCOC(C(=O)Nc1nnc(N[C@@H]2CCN(c3cccnn3)C2)s1)c1cccc(N2CC(F)C2)c1 (single isomer, unassigned) [Example 31]	
98.7	188			CCOC(C(=O)Nc1nnc(N[C@@H]2CCN(c3cccnn3)C2)s1)c1cccc(N2CC(F)C2)c1 (single isomer, unassigned) [Example 32]	
394	612		21.8	COC(C(=O)Nc1nnc(N[C@@H]2CCN(c3ccc(C)nn3)C2)s1)c1cccc(N2CC(F)C2)c1 (single isomer, unassigned) [Example 36]	
2.24	20		0.292	COc1cc(OC)cc(C(OC)C(=O)Nc2nnc(N[C@@H]3CCN(c4cccnn4)C3)s2)c1 (single isomer, unassigned) [Example 43]	
59.1	48.2		8.85	COc1cc(OC)cc(C(OC)C(=O)Nc2nnc(N[C@@H]3CCN(c4cccnn4)C3)s2)c1 (single isomer, unassigned) [Example 44]	
	1600			COCC(C(=O)Nc1nnc(N[C@@H]2CCN(c3ccc(C)nn3)C2)s1)c1ccccc1 (single isomer, unassigned) [Example 45(a)]	
			10.6	CCO[C@@H](C(=O)Nc1nnc(N[C@@H]2CCN(c3cccnn3)C2)s1)c1cccc(N2CC(OC)C2)c1 [Example 22(b), (2R)-2-ethoxy-2-[3-(3-methoxyazetidin-1-yl)phenyl]-N-[5-[[(3R)-1-pyridazin-3-ylpyrrolidin-3-yl]amino]-1,3,4-thiadiazol-2-yl]acetamide]	178
5.35				CCOC(C(=O)Nc1nnc(N[C@@H]2CCN(c3cccnn3)C2)s1)c1cccc(N2CC(OC)C2)c1 (stereo partly drawn) [Example 33, 2-ethoxy-2-[3-(3-methoxyazetidin-1-yl)phenyl]-N-[5-[[(3R)-1-pyridazin-3-ylpyrrolidin-3-yl]amino]-1,3,4-thiadiazol-2-yl]acetamide]	
18			10.6	CCOC(C(=O)Nc1nnc(N[C@@H]2CCN(c3cccnn3)C2)s1)c1cccc(N2CC(OC)C2)c1 (stereo partly drawn) [Example 34, 2-ethoxy-2-[3-(3-methoxyazetidin-1-yl)phenyl]-N-[5-[[(3R)-1-pyridazin-3-ylpyrrolidin-3-yl]amino]-1,3,4-thiadiazol-2-yl]acetamide]	
303	190			COC(C(=O)Nc1nnc(N[C@@H]2CCN(c3cccnn3)C2)s1)c1ccc(F)c(N2CC(F)(F)C2)c1 (stereo partly drawn) [Example 38, 2-[3-(3,3-difluoroazetidin-1-yl)-4-fluoro-phenyl]-2-methoxy-N-[5-[[(3R)-1-pyridazin-3-ylpyrrolidin-3-yl]amino]-1,3,4-thiadiazol-2-yl]acetamide]	

Continued, molecule first:

SMILES	IC50 (NCI-H1703 cells; [2]) [nM]	IC50 (GLS1; [3]) [nM]	IC50 (GLS1; read-out: Assay a) enz IC50) [nM]	IC50 [1] [nM]	IC50 (NCI-H1703 cells; [4]) [nM]
CO[C@H](C(=O)Nc1nnc(N[C@@H]2CCN(c3nccnn3)C2)s1)c1cccc(N2CC(F)(F)C2)c1 (single isomer, unassigned) [14(b)]	156	660			
CO[C@H](C(=O)Nc1nnc(N[C@@H]2CCN(c3nccnn3)C2)s1)c1cccc(N2CC(F)C2)c1 (single isomer, unassigned) [15(b)]	376	1310			
COc1cc(OC)cc([C@H](OC)C(=O)Nc2nnc(N[C@@H]3CCN(c4nccnn4)C3)s2)c1 (single isomer, unassigned) [16(b)]		689			
COC1CN(c2cccc([C@H](OC)C(=O)Nc3nnc(N[C@@H]4CCN(c5nccnn5)C4)s3)c2)C1 (single isomer, unassigned) [Example 13(a)]		75.1			
CO[C@H](C(=O)Nc1nnc(N[C@@H]2CCN(c3nccnn3)C2)s1)c1cccc(N2CC(F)(F)C2)c1 (single isomer, unassigned) [Example 14(a)]	5.89	91.5			
CO[C@H](C(=O)Nc1nnc(N[C@@H]2CCN(c3nccnn3)C2)s1)c1cccc(N2CC(F)C2)c1 (single isomer, unassigned) [Example 15(a)]	11.6	77.6			
COc1cc(OC)cc([C@H](OC)C(=O)Nc2nnc(N[C@@H]3CCN(c4nccnn4)C3)s2)c1 (single isomer, unassigned) [Example 16(a)]		25.2			3.49
COC(C(=O)Nc1nnc(N[C@@H]2CCN(c3ccc(F)nn3)C2)s1)c1cccc(N2CC(F)C2)c1 (single isomer, unassigned) [Example 27]	13.5	149		1.4	
COC(C(=O)Nc1nnc(N[C@@H]2CCN(c3ccc(F)nn3)C2)s1)c1cccc(N2CC(F)C2)c1 (single isomer, unassigned) [Example 28]	262	195		51.5	
COC(C(=O)Nc1nnc(N[C@@H]2CCN(c3ccc(C)nn3)C2)s1)c1cccc(N2CC(F)C2)c1 (single isomer, unassigned) [Example 35]	9.03	77		1.21	
COC[C@H](C(=O)Nc1nnc(N[C@@H]2CCN(c3ccc(C)nn3)C2)s1)c1ccccc1 (single isomer, unassigned) [Example 45(a)]				147	
COC(C(=O)Nc1nnc(N[C@@H]2CCN(c3ccc(C)nn3)C2)s1)c1cccc(N2CC(F)(F)C2)c1 (stereo partly drawn) [Example 40, 2-[3-(3,3-difluoroazetidin-1-yl)phenyl]-2-methoxy-N-[5-[[(3R)-1-(6-methylpyridazin-3-yl)pyrrolidin-3-yl]amino]-1,3,4-thiadiazol-2-yl]acetamide]	82.5	311			
COC(C(=O)Nc1nnc(N[C@@H]2CCN(c3ccc(F)nn3)C2)s1)c1cccc(N2CC(F)(F)C2)c1 (stereo partly drawn) [Example 41, 2-[3-(3,3-difluoroazetidin-1-yl)phenyl]-N-[5-[[(3R)-1-(6-fluoropyridazin-3-yl)pyrrolidin-3-yl]amino]-1,3,4-thiadiazol-2-yl]-2-methoxy-acetamide]	1.46				
